Reference: patent US20030018008A1, “Formulations of adenosine a1 agonists” (priority 1999, published 2003)

Tested on: carrageenan-induced oedema and allodynia
Test: Carrageenan model: weight bearing (allodynia) and paw oedema of the inflamed hind paw
Type: in vivo, rat
Details: for % Weight on inflammed paw (Allodynia): 3 h after intraplantar 2% carrageenan, 50% = no pain; for % Inhibition of carrageenan-induced allodynia / % Inhibition of carrageenan-induced oedema: compared to vehicle control; for % Inhibition of carrageenan-induced oedema: plethysmometer
Experimental: Carrageenan model for (2S, 3S, 4R, 5R)-2-(5 tert-butyl-[1,3,4]oxadiazol-2-yl)-5-[6-(4-chloro-2-fluoro-phenylamino)-purin-9-yl]-tetrahvdro-furan-3,4-diol (Adenosine A1 agonist) and alosetron.
Male Random Hooded rats (180-220 g) were used. The test compound or vehicle was administered 30 mins before the 2nd test compound or vehicle. The test compounds and vehicles used were: (i) Compound A in 1% DMSO, 66% Peg400, 33% distilled water and (ii) alosetron in saline. Both test compounds were administered via the oral route. After a further 30 mins 100 ul of 2% carrageenan was injected intraplantar into the left hind paw and the animals were then returned to their cages. Three hours later, behavioural testing of the carrageenan-induced decrease in weight on the inflamed left hind paw (% weight on the inflammed left hind paw) and associated oedema was assessed. Weight bearing was measured using the dual channel weight averager and paw oedema was assessed using a plethysmometer. The dual channel weight averager is commercially available and is described in the following abstract: Validation of the dual channel weight averager as an instrument for the measurement of inflammatory pain, N. M. Clayton et al., 1997 British Journal Pharmacol. 120, 219P.
Note: In the absense of pain, weight on the hind paws would be evenly distributed, i.e. 50% on each hind paw.
Note: Oedema is the presence of abnormally large amounts of fluid in the intercellular tissue spaces of the body and in the present example is used to provide a measure of inflammation (or anti-oedemic). Allodynia is a sensation of pain resulting from a non-injurious stimulus such as normal heat, cold or pressure on skin and in the present example the weight-bearing (allodynia) effect in used to provide a measure of analgesia.

Compound | % Weight on inflammed paw (Allodynia) (Compound A 0.4 mg/kg oral) | % Inhibition of carrageenan-induced allodynia (Compound A 0.4 mg/kg oral) | % Inhibition of carrageenan-induced oedema (Compound A 0.4 mg/kg oral) | % Weight on inflammed paw (Allodynia) (Alosetron 0.3 mg/kg oral) | % Inhibition of carrageenan-induced allodynia (Alosetron 0.3 mg/kg oral) | % Inhibition of carrageenan-induced oedema (Alosetron 0.3 mg/kg oral)
CC(C)(C)c1nnc([C@H]2O[C@@H](n3cnc4c(Nc5ccc(Cl)cc5F)ncnc43)[C@H](O)[C@@H]2O)o1 [Compound A, (2S, 3S, 4R, 5R)-2-(5 tert-butyl-[1,3,4]oxadiazol-2-yl)-5-[6-(4-chloro-2-fluoro-phenylamino)-purin-9-yl]-tetrahydro-furan-3,4-diol] | 20.7 ± 4.3% | 2.1 ± 14.3% | −3.1 ± 8.2% |  |  | 
Cc1[nH]cnc1CN1CCc2c(c3ccccc3n2C)C1=O [Alosetron, 2,3,4,5-tetrahydro-5-methyl-2-[(5-methyl-1H-imidazol-4-yl)methyl]-1H-pyrido[4,3-b]indol-1-one] |  |  |  | 33.6 ± 5.5% | 45.1 ± 18.4% | 28.2 ± 6.3%
